In one experiment the test system is NCI-H2030. Kind of experiment: Downregulation of XIAP mRNA expression level in human NCI-H2030 cells at 0.1 to 1 uM for 24 hrs by qRT-PCR analysis. The experiment is classed as functional, cell-based. The settings on record: dose 0.1-1 µM. For orientation: In qPCR the cycle at which signal appears reflects the starting amount.
Experiment [1] has as its system NCI-H460. Put plainly: Induction of cell cycle arrest in human NCI-H460 cells assessed as accumulation of cells at S phase at 1 uM for 24 hrs by Click-iT EdU Alexa Fluor 647 flow cytometric assay kit analysis (reference value: 56%). The experiment is classed as functional.
Experiment [2] has as its system DV-90. Kind of experiment: Downregulation of FLIP mRNA expression level in human DV-90 cells at 0.1 to 1 uM for 24 hrs by qRT-PCR analysis. The format is functional, cell-based. As to conditions: dose 0.1-1 µM.
Experiment [3] relates to NCI-H460. Kind of experiment: Induction of cell cycle arrest in human NCI-H460 cells assessed as accumulation of cells at G2/M phase at 0.5 uM for 24 hrs by Click-iT EdU Alexa Fluor 647 flow cytometric assay kit analysis (reference value: 1%). The experiment is classed as functional. (In general: Flow cytometry measures light scatter and fluorescence of single cells or particles in a stream.)

Experiment [4] concerns NCI-H460. Put plainly: Induction of cell cycle arrest in human NCI-H460 cells assessed as accumulation of cells at G2/M phase at 0.1 uM for 24 hrs by Click-iT EdU Alexa Fluor 647 flow cytometric assay kit analysis (reference value: 1%). The experiment is classed as functional.
Experiment [5] has as its system NCI-H460. Put plainly: Induction of cell cycle arrest in human NCI-H460 cells assessed as accumulation of cells at G0/G1 phase at 0.5 uM for 24 hrs by Click-iT EdU Alexa Fluor 647 flow cytometric assay kit analysis (reference value: 43%). The experiment is classed as functional.
The subject of another experiment is NCI-H23. Put plainly: Downregulation of c-MYC protein expression level in human NCI-H23 cells at 1 uM for 24 hrs by […] analysis. The experiment is classed as functional, cell-based.
Experiment [6] relates to A549. Put plainly: Induction of apoptosis in human A549 cells assessed as late apoptotic cells at 1 uM in presenc of cisplatin by annexin V-PI based flow cytometric analysis (reference value: 2.5%). The format is functional.
Experiment [7] relates to A549. Put plainly: Downregulation of c-MYC protein expression level in human A549 cells at 1 uM for 24 hrs by […] analysis. The experiment is classed as functional, cell-based.
Experiment [8] relates to NCI-H460. Kind of experiment: Induction of cell cycle arrest in human NCI-H460 cells assessed as accumulation of cells at G0/G1 phase at 0.25 uM for 24 hrs by Click-iT EdU Alexa Fluor 647 flow cytometric assay kit analysis (reference value: 43%). The format is functional.
Experiment [9] has as its system DV-90. Kind of experiment: Induction of cell cycle arrest in human DV-90 cells assessed as accumulation of cells at S phase at 0.1 uM for 24 hrs by Click-iT EdU Alexa Fluor 647 flow cytometric assay kit analysis (reference value: 31%). The experiment is classed as functional.
Experiment [10] deals with DV-90. Kind of experiment: Induction of cell cycle arrest in human DV-90 cells assessed as accumulation of cells at S phase at 1 uM for 24 hrs by Click-iT EdU Alexa Fluor 647 flow cytometric assay kit analysis (reference value: 31%). The format is functional.
In experiment [11] the test system is A549. Kind of experiment: Induction of apoptosis in human A549 cells assessed as viable cells at 1 uM in presence of cisplatin by annexin V-PI based flow cytometric analysis (reference value: 95.7%). The format is functional. As to conditions: read-out: Activity.
Experiment [12] deals with NCI-H460. Put plainly: Induction of cell cycle arrest in human NCI-H460 cells assessed as accumulation of cells at S phase at 0.25 uM for 24 hrs by Click-iT EdU Alexa Fluor 647 flow cytometric assay kit analysis (reference value: 56%). The format is functional.
Experiment [13] concerns NCI-H460. Put plainly: Induction of cell cycle arrest in human NCI-H460 cells assessed as accumulation of cells at S phase at 0.5 uM for 24 hrs by Click-iT EdU Alexa Fluor 647 flow cytometric assay kit analysis (reference value: 56%). The experiment is classed as functional.
The test system of experiment [14] is NCI-H460. Kind of experiment: Induction of cell cycle arrest in human NCI-H460 cells assessed as accumulation of cells at G2/M phase at 0.25 uM for 24 hrs by Click-iT EdU Alexa Fluor 647 flow cytometric assay kit analysis (reference value: 1%). The experiment is classed as functional.
A further experiment relates to NCI-H1373. Put plainly: Induction of TRAIL dependent apoptosis in human NCI-H1373 cells assessed as late apoptotic cells at 1 uM in presence of […] by annexin V-PI staining based flow cytometric analysis (reference value: 8.3%). The format is functional.
The test system of experiment [15] is NCI-H460. Put plainly: Induction of cell cycle arrest in human NCI-H460 cells assessed as accumulation of cells at G2/M phase at 1 uM for 24 hrs by Click-iT EdU Alexa Fluor 647 flow cytometric assay kit analysis (reference value: 1%). The experiment is classed as functional.
In experiment [16] the test system is NCI-H460. Kind of experiment: Induction of cell cycle arrest in human NCI-H460 cells assessed as accumulation of cells at G0/G1 phase at 0.1 uM for 24 hrs by Click-iT EdU Alexa Fluor 647 flow cytometric assay kit analysis (reference value: 43%). The format is functional.
In experiment [17] the test system is DV-90. Put plainly: Induction of cell cycle arrest in human DV-90 cells assessed as accumulation of cells at S phase at 0.5 uM for 24 hrs by Click-iT EdU Alexa Fluor 647 flow cytometric assay kit analysis (reference value: 31%). The format is functional.
Experiment [18] relates to DV-90. Kind of experiment: Induction of cell cycle arrest in human DV-90 cells assessed as accumulation of cells at S phase at 0.25 uM for 24 hrs by Click-iT EdU Alexa Fluor 647 flow cytometric assay kit analysis (reference value: 31%). The format is functional.
Experiment [19] concerns NCI-H460. Put plainly: Induction of apoptosis in human NCI-H460 cells assessed as early apoptotic cells at 2.5 uM for 24 hrs by annexin V-PI staining based flow cytometric analysis (reference value: 0.2%). The experiment is classed as functional.
The subject of the next experiment is NCI-H2347. Put plainly: Downregulation of XIAP protein expression level in human NCI-H2347 cells at 1 uM for 24 hrs by […] analysis. The format is functional, cell-based.
Experiment [20] relates to NCI-H460. Put plainly: Induction of cell cycle arrest in human NCI-H460 cells assessed as accumulation of cells at S phase at 0.1 uM for 24 hrs by Click-iT EdU Alexa Fluor 647 flow cytometric assay kit analysis (reference value: 56%). The experiment is classed as functional.
Experiment [21] has as its system NCI-H460. Put plainly: Induction of cell cycle arrest in human NCI-H460 cells assessed as accumulation of cells at G0/G1 phase at 1 uM for 24 hrs by Click-iT EdU Alexa Fluor 647 flow cytometric assay kit analysis (reference value: 43%). The format is functional.
The subject of a further experiment is LCLC-97TM1. Kind of experiment: Downregulation of FLIP mRNA expression level in human LCLC-97TM1 cells at 0.1 to 1 uM for 24 hrs by qRT-PCR analysis. The format is functional, cell-based. The settings on record: dose 0.1-1 µM.
Experiment [22] concerns DV-90. Put plainly: Induction of apoptosis in human DV-90 cells assessed as viable cells at 2.5 uM for 48 hrs by annexin V-PI staining based flow cytometric analysis (reference value: 81.9%). The settings on record: DV-90, 48 h.
Experiment [23] deals with A549. Kind of experiment: Induction of apoptosis in human A549 cells assessed as viable cells at 0.5 uM for 24 hrs by annexin V-PI staining based flow cytometric analysis (reference value: 97.7%). The format is functional. As to conditions: read-out: Activity.
Experiment [24] deals with A549. Put plainly: Induction of apoptosis in human A549 cells assessed as late apoptotic cells at 0.5 uM for 24 hrs by annexin V-PI staining based flow cytometric analysis (reference value: 1.2%). The experiment is classed as functional.
Experiment [25] has as its system DV-90. Put plainly: Induction of apoptosis in human DV-90 cells assessed as viable cells at 0.5 uM for 48 hrs by annexin V-PI staining based flow cytometric analysis (reference value: 81.9%). The settings on record: DV-90, 48 h.
The subject of experiment [26] is NCI-H460. Kind of experiment: Induction of apoptosis in human NCI-H460 cells assessed as necrotic cells at 2.5 uM for 24 hrs by annexin V-PI staining based flow cytometric analysis (reference value: 3.2%). The experiment is classed as functional.

The structures appear in SMILES notation. Activity calls are given as the source filed them. The rule behind the calls is not given here.

Take `Cc1sc2c(c1C)C(c1ccc(Cl)cc1)=N[C@@H](CC(=O)OC(C)(C)C)c1nnc(C)n1-2`: the result in the experiment on NCI-H2030, with DV-90 [2], in the experiment on NCI-H23, in the experiment with A549 [7], with NCI-H2347 and in the experiment on LCLC-97TM1 was Active. The Activity with NCI-H460 [1] worked out at 54%; in the experiment with NCI-H460 [3] it was 1%; in the experiment with NCI-H460 [4], 1%; in the experiment on NCI-H460 [5] it was 45%; with A549 [6], 28.5%; with NCI-H460 [8], 41%. Besides, the Activity turned out to be 27% with DV-90 [9]; 15% in the experiment on DV-90 [10]; 57% with NCI-H460 [12]; 54% in the experiment with NCI-H460 [13]; 1% in the experiment on NCI-H460 [14]; 35.9% in the experiment on NCI-H1373. Also, the Activity was 1% in the experiment with NCI-H460 [15]; 44% with NCI-H460 [16]; 18% in the experiment with DV-90 [17]; 24% in the experiment with DV-90 [18]; 0.4% with NCI-H460 [19]; 55% in the experiment on NCI-H460 [20]. In the experiment with NCI-H460 [21], the Activity turned out to be 45%. In addition, the viability at 1 µM with A549 [11] stood at 58.9%.
Turning to `Cc1sc2c(c1C)C(c1ccc(Cl)cc1)=N[C@@H](CC(=O)Nc1ccc(O)cc1)c1nnc(C)n1-2` [BIRABRESIB], the Activity in the experiment on NCI-H460 [3] was 3%; in the experiment on NCI-H460 [4], 1%; in the experiment with DV-90 [9], 20%; with DV-90 [10], 17%; in the experiment on A549 [24], 1.1%; in the experiment with NCI-H460 [14] it was 1%. For the same compound, the Activity in the experiment with NCI-H460 [15] stood at 1%; with DV-90 [17] it was 17%; in the experiment on DV-90 [18], 21%; in the experiment on NCI-H460 [26], 3.9%. Also, the viability at 2.5 µM in the experiment on DV-90 [22] came out at 49.4%. For the same compound, the viability at 0.5 µM in the experiment on A549 [23] was 98.1%; in the experiment with DV-90 [25] it was 57.6%.
Regarding `CCNC(=O)C[C@@H]1N=C(c2ccc(Cl)cc2)c2cc(OC)ccc2-n2c(C)nnc21` [MOLIBRESIB], the Activity in the experiment with NCI-H460 [1] was found to be 47%; with NCI-H460 [3], 1%; with NCI-H460 [4] it was 1%; in the experiment with NCI-H460 [5], 49%; in the experiment with NCI-H460 [8] it was 45%; in the experiment on NCI-H460 [12], 54%. Further, the Activity with NCI-H460 [13] is given as 49%; with NCI-H460 [14] it was 1%; with NCI-H460 [15], 1%; with NCI-H460 [16], 46%; with NCI-H460 [20], 53%; in the experiment on NCI-H460 [21] it was 51%.

Values taken from ChEMBL document CHEMBL5712891, “Inhibition of BET bromodomain-dependent XIAP and FLIP expression sensitizes KRAS-mutated NSCLC to pro-apoptotic agents” (Cell Death Dis, 2016).
